Assay results from patent publication US9738655B2, “Tetrahydroisoquinolines containing substituted azoles as factor XIa inhibitors” (BRISTOL-MYERS SQUIBB COMPANY, priority 2013, dated 2017).
Where a name gives a salt, the structure may show the parent alone.

molecular target: purified human Factor XIa (Homo sapiens (Human), UniProt P03951); assay: Factor XIa enzyme inhibition assay (chromogenic substrate S-2366); settings: not given
Sequence (P03951 388-625): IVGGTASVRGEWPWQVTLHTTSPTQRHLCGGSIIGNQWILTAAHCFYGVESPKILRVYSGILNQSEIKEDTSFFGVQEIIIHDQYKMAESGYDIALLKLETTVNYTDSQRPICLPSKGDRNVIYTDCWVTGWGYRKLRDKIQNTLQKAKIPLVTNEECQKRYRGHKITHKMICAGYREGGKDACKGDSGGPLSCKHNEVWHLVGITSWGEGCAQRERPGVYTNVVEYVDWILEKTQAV
Sequence (P03951 19-387 partner): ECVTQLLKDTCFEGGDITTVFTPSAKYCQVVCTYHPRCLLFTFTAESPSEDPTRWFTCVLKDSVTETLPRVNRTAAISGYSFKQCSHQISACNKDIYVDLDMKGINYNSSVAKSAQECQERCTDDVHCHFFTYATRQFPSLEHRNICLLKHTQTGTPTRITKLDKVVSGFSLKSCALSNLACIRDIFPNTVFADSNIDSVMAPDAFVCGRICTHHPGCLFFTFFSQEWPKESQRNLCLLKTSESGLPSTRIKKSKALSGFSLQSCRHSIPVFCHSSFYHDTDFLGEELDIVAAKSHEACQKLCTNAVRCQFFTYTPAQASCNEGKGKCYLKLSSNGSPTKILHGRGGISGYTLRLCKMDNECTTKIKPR

Molecule | Ki [nM]
COc1cccc(-c2cccc3c2CCN(C(=O)c2cn(-c4cccc(Cl)c4F)nn2)C3C(=O)Nc2ccc(C(=O)O)cc2)c1F (stereo not shown) [Example 180, 4-(2-(1-(3-chloro-2-fluorophenyl)-1H-1,2,3-triazole-4-carbonyl)-5-(2-fluoro-3-methoxyphenyl)-1,2,3,4-tetrahydroisoquinoline-1-carboxamido)benzoic acid] | 5.2

same assay, conditions: read-out: Factor XIa Ki; measured at 25° C.

Molecule | Ki [nM]
CN(C)c1ccc(-c2cccc3c2CCN(C(=O)c2cn(-c4cccc(Cl)c4F)nn2)C3C(=O)Nc2ccc(C(=O)O)cc2)cn1 (stereo not shown) [Example 172, 4-(2-(1-(3-chloro-2-fluorophenyl)-1H-1,2,3-triazole-4-carbonyl)-5-(6-(dimethylamino)pyridin-3-yl)-1,2,3,4-tetrahydroisoquinoline-1-carboxamido)benzoic acid] | < 5
CCOc1ccc(-c2cccc3c2CCN(C(=O)c2cn(-c4cccc(Cl)c4F)nn2)C3C(=O)Nc2ccc(C(=O)O)cc2)cn1 (stereo not shown) [Example 178, 4-(2-(1-(3-chloro-2-fluorophenyl)-1H-1,2,3-triazole-4-carbonyl)-5-(6-ethoxypyridin-3-yl)-1,2,3,4-tetrahydroisoquinoline-1-carboxamido)benzoic acid, TFA salt] | < 5
O=C(O)c1ccc(NC(=O)C2c3cccc(N4CCOCC4=O)c3CCN2C(=O)[C@H]2CC(c3cccc(Cl)c3F)=NO2)cc1 (stereo in doubt) [Example 290, 4-((S)-2-((R)-3-(3-chloro-2-fluorophenyl)-4,5-dihydroisoxazole-5-carbonyl)-5-(3-oxomorpholino)-1,2,3,4-tetrahydroisoquinoline-1-carboxamido)benzoic acid] | 13.4
COC(=O)C12CCC(NC(=O)C3c4cccc(-c5cncnc5)c4CCN3C(=O)c3cn(-c4cccc(Cl)c4F)nn3)(CC1)CC2 (stereo not shown) [Example 142, Methyl 4-(2-{[1-(3-chloro-2-fluorophenyl)-1H-1,2,3-triazol-4-yl]carbonyl}-5-(pyrimidin-5-yl)-1,2,3,4-tetrahydroisoquinoline-1-amido)bicyclo[2.2.2]octane-1-carboxylate, TFA salt] | 56.2
O=C(O)c1ccc(NC(=O)C2c3cccc(-c4ccc5nccnc5c4)c3CCN2C(=O)c2cn(-c3cccc(Cl)c3F)nn2)cc1 (stereo not shown) [Example 174, 4-(2-(1-(3-chloro-2-fluorophenyl)-1H-1,2,3-triazole-4-carbonyl)-5-(quinoxalin-6-yl)-1,2,3,4-tetrahydroisoquinoline-1-carboxamido)benzoic acid] | < 5
O=C(O)c1ccc(NC(=O)C2c3cccc(-c4cccc(-c5ccn[nH]5)c4)c3CCN2C(=O)c2cn(-c3cccc(Cl)c3F)nn2)cc1 (stereo not shown) [Example 164, 4-(5-(3-(1H-pyrazol-5-yl)phenyl)-2-(1-(3-chloro-2-fluorophenyl)-1H-1,2,3-triazole-4-carbonyl)-1,2,3,4-tetrahydroisoquinoline-1-carboxamido)benzoic acid] | 9.17
O=C(O)c1ccc(NC(=O)C2c3cccc(N4CCC(N5CCCC5)CC4)c3CCN2C(=O)c2cn(-c3cccc(Cl)c3F)nn2)cc1 (stereo not shown) [Example 210, 4-(2-(1-(3-chloro-2-fluorophenyl)-1H-1,2,3-triazole-4-carbonyl)-5-(4-(pyrrolidin-1-yl)piperidin-1-yl)-1,2,3,4-tetrahydroisoquinoline-1-carboxamido)benzoic acid, 2 TFA salt] | < 5
4-(2-(1-(3-chloro-2- fluorophenyl)-5-hydroxy- 1H-pyrazole-4-carbonyl)-5- (4-methylpiperazin-1-yl)- 1,2,3,4- tetrahydroisoquinoline-1- carboxamido)benzoic acid, 2 TFA salt. [Example 214] | 713
O=C(O)c1ccc(NC(=O)C2c3cccc(-c4ccc(F)c(C(=O)N5CCCC5)c4)c3CCN2C(=O)c2cn(-c3cccc(Cl)c3F)nn2)cc1 (stereo not shown) [Example 184, 4-(2-(1-(3-chloro-2-fluorophenyl)-1H-1,2,3-triazole-4-carbonyl)-5-(4-fluoro-3-(pyrrolidine-1-carbonyl)phenyl)-1,2,3,4-tetrahydroisoquinoline-1-carboxamido)benzoic acid] | < 5
O=C(O)c1ccc(NC(=O)[C@H]2c3cccc(N4CCN(C5COC5)CC4)c3CCN2C(=O)[C@H]2CC(c3cccc(Cl)c3F)=NO2)cc1 [Example 228, 4-((R)-2-((R)-3-(3-Chloro-2-fluorophenyl)-4,5-dihydroisoxazole-5-carbonyl)-5-(4-(oxetan-3-yl)piperazin-1-yl)-1,2,3,4-tetrahydroisoquinoline-1-carboxamido)benzoic acid, 2 TFA salt] | < 5
Cn1ncc2ccc(-c3cccc4c3CCN(C(=O)c3cn(-c5cccc(Cl)c5F)nn3)C4C(=O)Nc3ccc(C(=O)O)cc3)cc21 (stereo not shown) [Example 170, 4-(2-(1-(3-chloro-2-fluorophenyl)-1H-1,2,3-triazole-4-carbonyl)-5-(1-methyl-1H-indazol-6-yl)-1,2,3,4-tetrahydroisoquinoline-1-carboxamido)benzoic acid] | < 5
CNC(=O)c1ccc(-c2cccc3c2CCN(C(=O)c2cn(-c4cccc(Cl)c4F)nn2)C3C(=O)Nc2ccc(C(=O)O)cc2)cn1 (stereo not shown) [Example 166, 4-(2-(1-(3-chloro-2-fluorophenyl)-1H-1,2,3-triazole-4-carbonyl)-5-(6-(methylcarbamoyl)pyridin-3-yl)-1,2,3,4-tetrahydroisoquinoline-1-carboxamido)benzoic acid, TFA salt] | < 5
CN(C)S(=O)(=O)c1cccc(-c2cccc3c2CCN(C(=O)c2cn(-c4cccc(Cl)c4F)nn2)C3C(=O)Nc2ccc(C(=O)O)cc2)c1 (stereo not shown) [Example 177, 4-(2-(1-(3-chloro-2-fluorophenyl)-1H-1,2,3-triazole-4-carbonyl)-5-(3-(N,N-dimethylsulfamoyl)phenyl)-1,2,3,4-tetrahydroisoquinoline-1-carboxamido)benzoic acid] | < 5
CNC(=O)c1ccc(-c2cccc3c2CCN(C(=O)c2cnn(-c4cccc(Cl)c4F)c2N)C3C(=O)Nc2ccc(C(=O)O)cc2)cn1 (stereo not shown) [Example 47, 4-(2-(5-Amino-1-(3-chloro-2-fluorophenyl)-1H-pyrazole-4-carbonyl)-5-(6-(methylcarbamoyl)pyridin-3-yl)-1,2,3,4-tetrahydroisoquinoline-1-carboxamido)benzoic acid, TFA salt] | < 5
O=C(O)c1ccc(NC(=O)C2c3cccc(N4CCC(O)CC4)c3CCN2C(=O)c2cn(-c3cccc(Cl)c3F)nn2)cc1 (stereo not shown) [Example 85, 4-(2-(1-(3-chloro-2-fluorophenyl)-1H-1,2,3-triazole-4-carbonyl)-5-(4-hydroxypiperidin-1-yl)-1,2,3,4-tetrahydroisoquinoline-1-carboxamido)benzoic acid, TFA salt] | < 5
Cc1nnc(-c2cccc(-c3cccc4c3CCN(C(=O)c3cn(-c5cccc(Cl)c5F)nn3)C4C(=O)Nc3ccc(C(=O)O)cc3)c2)o1 (stereo not shown) [Example 171, 4-(2-(1-(3-chloro-2-fluorophenyl)-1H-1,2,3-triazole-4-carbonyl)-5-(3-(5-methyl-1,3,4-oxadiazol-2-yl)phenyl)-1,2,3,4-tetrahydroisoquinoline-1-carboxamido)benzoic acid] | < 5
O=C(O)c1ccc(NC(=O)C2c3cccc(-c4ccncc4)c3CCN2C(=O)c2cn(-c3cccc(Cl)c3F)nn2)cc1 (stereo not shown) [Example 186, 4-(2-(1-(3-chloro-2-fluorophenyl)-1H-1,2,3-triazole-4-carbonyl)-5-(pyridin-4-yl)-1,2,3,4-tetrahydroisoquinoline-1-carboxamido)benzoic acid, TFA salt] | < 5
CC1(O)CCN(c2cccc3c2CCN(C(=O)c2cnn(-c4cccc(Cl)c4F)c2)C3C(=O)Nc2ccc(C(=O)O)cc2)CC1 (stereo not shown) [Example 68, 4-(2-(1-(3-chloro-2-fluorophenyl)-1H-pyrazole-4-carbonyl)-5-(4-hydroxy-4-methylpiperidin-1-yl)-1,2,3,4-tetrahydroisoquinoline-1-carboxamido)benzoic acid, TFA salt] | < 5
O=C(O)c1ccc(NC(=O)C2c3cccc(C4=CCNCC4)c3CCN2C(=O)c2cn(-c3cccc(Cl)c3F)nn2)cc1 (stereo not shown) [Example 187, 4-(2-(1-(3-chloro-2-fluorophenyl)-1H-1,2,3-triazole-4-carbonyl)-5-(1,2,3,6-tetrahydropyridin-4-yl)-1,2,3,4-tetrahydroisoquinoline-1-carboxamido)benzoic acid] | < 5
O=C(O)c1ccc(NC(=O)C2c3cccc(-c4ccc(S(=O)(=O)NC5CC5)cc4)c3CCN2C(=O)c2cn(-c3cccc(Cl)c3F)nn2)cc1 (stereo not shown) [Example 176, 4-(2-(1-(3-chloro-2-fluorophenyl)-1H-1,2,3-triazole-4-carbonyl)-5-(4-(N-cyclopropylsulfamoyl)phenyl)-1,2,3,4-tetrahydroisoquinoline-1-carboxamido)benzoic acid] | < 5
O=C(N[C@H]1CC[C@@H](C(=O)O)CC1)C1c2cccc(-c3cncnc3)c2CCN1C(=O)c1cn(-c2cccc(Cl)c2F)nn1 (stereo partly drawn) [Example 133, (1R,4R)-4-(2-(1-(3-chloro-2-fluorophenyl)-1H-1,2,3-triazole-4-carbonyl)-5-(pyrimidin-5-yl)-1,2,3,4-tetrahydroisoquinoline-1-carboxamido) cyclohexanecarboxylic acid] | 12.6
O=C(O)c1ccc(NC(=O)C2c3cccc(-c4ccccc4CN4CCOCC4)c3CCN2C(=O)c2cn(-c3cccc(Cl)c3F)nn2)cc1 (stereo not shown) [Example 179, 4-(2-(1-(3-chloro-2-fluorophenyl)-1H-1,2,3-triazole-4-carbonyl)-5-(2-(morpholinomethyl)phenyl)-1,2,3,4-tetrahydroisoquinoline-1-carboxamido)benzoic acid, TFA salt] | 5.92
COC1CCN(c2cccc3c2CCN(C(=O)c2cc(-c4cccc(F)c4)no2)C3C(=O)Nc2ccc(C(=O)O)cc2)CC1 (stereo not shown) [Example 152, 4-(2-(3-(3-fluorophenyl)isoxazole-5-carbonyl)-5-(4-methoxypiperidin-1-yl)-1,2,3,4-tetrahydroisoquinoline-1-carboxamido)benzoic acid, TFA salt] | 466

same assay, conditions: read-out: Factor XIa Ki; measured at 25° C.; TFA salt

Molecule | Ki [nM]
COC1CCN(c2cccc3c2CCN(C(=O)C2CCN(c4cccc(Cl)c4)C2)C3C(=O)Nc2ccc(C(=O)O)cc2)CC1 (stereo not shown) [Example 258, 4-(2-(1-(3-chlorophenyl)pyrrolidine-3-carbonyl)-5-(4-methoxypiperidin-1-yl)-1,2,3,4-tetrahydroisoquinoline-1-carboxamido)benzoic acid, TFA salt] | 127
